# Reference: article PMC8066833 (Pharmaceuticals, 2021)
# Key:
# HSV-1 [1] = test: HSV-1 inactivation: virus pre-incubated with peptoid, infection of OKF6/TERT-1 cells, HSV-1 DNA by QPCR; assay type: cell-based, Herpes Simplex Virus-1; conditions: for Activity against HSV-1 (screening, HSV-1 DNA by QPCR relative to β-actin): virus incubated with peptoid at 20 µg/mL for 2 h at 37 °C, then infection of OKF6/TERT-1 cells for 24 h
# HSV-1-GFP = test: Fluorescence imaging of HSV-1-GFP infection; assay type: cell-based, Herpes Simplex Virus-1; conditions: virus treated at 20 µg/mL for 2 h; control-treated virus showed strong fluorescence
# HSV-1 [2] = test: Electron microscopy (negative staining and cryo-EM) of peptoid-treated HSV-1; set-up: species or system Herpes Simplex Virus-1; conditions: HSV-1 treated 2 h at 37 °C; untreated controls 21% unenveloped capsids
# Protocol: Figure 3 Transmission electron microscope imaging of peptoid-treated HSV-1 vs. controls and comparative analysis of results. Virus was treated for 2 h at 37 °C followed by preparation for EM imaging as described in Materials and Methods. (A) Negative stained EM. (B) Cryo-EM. Visible in the control samples are the viral envelope and intact capsid (both panels). In the samples treated with the peptoids we observe both disrupted envelopes (top panels) and naked capsids (bottom panels).
# HSV-1 (1 × 10^8 pfu/mL) was incubated with peptoids or control medium for 2 h. at 37 °C. After incubation, the virus was fixed by addition of 2 volumes 4% glutaraldehyde/PBS, and fixed at 4 °C for 24 h. Virus was applied to grids (ultrathin carbon with lacey support film, Ted Pella, Inc.) for 1 min, followed by staining in 1% phosphotungstic acid for 1 min. Excess liquid was blotted and grids were allowed to air dry. Images were collected using a Thermo Scientific™ Talos™ F200X at 200 kV accelerating voltage with 50 μm objective aperture inserted to enhance contrast. Images were captured using a 4k × 4k CMOS camera (Thermo Scientific, Waltham, MA, USA, Ceta 16M™).
# After incubation of HSV-1 virus with peptoids for 2 h. at 37 °C, samples were vitrified using Leica EM-GP2® plunger (Leica Microsystems) as previously described on carbon holey film (R2 × 1 Quantifoil®; Micro Tools GmbH, Jena, Germany) grids. […]
# EpiOral cells = assay type: cell-based, human; conditions: 3D primary oral epithelial cultures (EpiOral), apical application for 3 h, any concentration up to 256 µg/mL, n = 3 wells per concentration
# Protocol: To provide further evidence to support the development of these agents as potential therapeutics, we assayed cytotoxicity against cultured cells. To provide the optimal in vitro toxicity model, we used 3-dimensional primary cultures of oral epithelial cells (EpiOral, MatTek Life Sciences, Ashland, MA, USA), grown at an air-liquid interface. The cultures were tested in the presence of increasing concentrations of MXB-4, MXB-5 and MXB-9 for 3 h, applied to the apical surface. Viability was monitored using the MTT assay. […] Incubation with 50% ethanol led to 0% viability (not shown).
# Figure 6 In vitro toxicity of peptoids. Peptoids were incubated on the apical surface of cultured EpiOral cells (n = 3 wells per concentration) for 3 h. Cell viability was quantified by MTT assay and are shown as mean percent survival +/− SD. Results shown are representative of two independent replicate experiments.
# Normal human bronchial epithelial cells, obtained from MatTek (EpiAirway) were grown at an air-liquid interface at 37 °C. […] Cell viability was quantified using the CyQUANT MTT Cell Viability Assay (ThermoFisher, Waltham, MA, USA), following the manufacturer’s instructions Absorbance was read at 540 nm and percent survival was calculated relative to untreated cultures. […]
# [3] = Small Angle X-ray Scattering, self-assembly in aqueous PBS buffer; assay type: physicochemical; conditions: unpublished data, manuscript in preparation
# Excerpt: Comparing the structures of the ten peptoids on our new library with regard to antiviral activity, halogenation seems to be beneficial as every active compound (except MXB-5) includes at least two Nspe(p-Br) submonomers. […] This difference in activity potentially can be explained by differences in net molecular hydrophobicity upon halogen substitution as previously reported by Molchanova et al.. In this study they found an increasing antimicrobial activity correlating with increasing hydrophobicity, until a threshold was reached where the activity dropped. […] Further studies are needed to make definitive conclusions about these effects. We believe that a certain type and degree and stability of peptoid self-assemblies in aqueous media can be an important determinant of both activity, and selectivity. If assemblies remain intact near zwitterionic mammalian cells, but disassemble near anionic pathogenic membranes, they can be selective towards affecting pathogens while causing little to no harm to the host.
# Pseudomonas aeruginosa = conditions: cited from earlier work
# Excerpt: (§1) This effort led to the development of MXB-5 [H-Ntridec-NLys-Nspe-Nspe-NLys-NH2; see Figure 1 for structure), a peptoid with a 13-carbon N-terminal alkyl modification, that shares some structural similarities with MXB-1 [31]. […] In one in vivo experiment which has been presented orally online, mice were infected intratracheally with bioluminescent Pseudomonas aeruginosa, and were ...
# mammalian cells = conditions: cited from earlier work
# Excerpt: as §1
# [4] = test system: Pseudomonas aeruginosa biofilms; conditions: cited from earlier work
# [5] = delivered intraperitoneally to treat a bacterial infection; cited from earlier work
# Excerpt: Peptoid 1 [H-(NLys-Nspe-Nspe)4-NH2], designated here as MXB-1, is a 12-mer with the trimer sequence motif NLys-Nspe-Nspe repeated four times (structures of the monomers are shown in Figure 1A). It is a helical peptoid with broad-spectrum activity against a variety of pathogens, including viruses as shown here; it is also active against fungi and bacterial biofilms.
Substance,"Activity against HSV-1, dose-dependence (HSV-1 [1]; 20 µg/mL for 2 h (5 and 20 µg/mL tested), Figure 2B)","Incubation time at which inactivation of HSV-1 is seen (time course) (HSV-1 [1]; time course, Figure 2C) [min]","Activity against HSV-1 (screening, HSV-1 DNA by QPCR relative to β-actin) (HSV-1 [1])",GFP fluorescence in cells at 24 h post-infection (viral replication) (HSV-1-GFP),"Cryo-EM quantification of whole virus, disrupted envelopes and naked capsids (HSV-1 [2])",Cytotoxicity (viability by MTT assay) (EpiOral cells),Self-assembled structure in solution (SAXS) [3],Tolerability in the lungs of the mice (Pseudomonas aeruginosa; intratracheal infection model),"Bacterial loads compared to untreated animals (Pseudomonas aeruginosa; mice, intratracheal infection with bioluminescent Pseudomonas aeruginosa)",Cytotoxicity to mammalian cells relative to MXB-1 (mammalian cells),Activity against Pseudomonas aeruginosa biofilms [4],Tolerability when delivered intraperitoneally [5]
H-Ntridec-NLys-Nspe-Nspe-NLys-NH2 [MXB-5],strong activity,≤ 30,strong activity,very weak fluorescence,large increase in both unenveloped capsids,no observable cytotoxicity,stable core-shell ellipsoidal micellar structures,well tolerated,significant reduction in bacterial loads,significantly less cytotoxic,highly active,–
"LL-37: human cathelicidin AMP, natural human host defense peptide (LLGDFFRKSKEKIGKEFKRIVQRIKDFLRNLVPRTES; Antibacterial peptide LL-37; UniProt P49913 134-170, looked up) [reference compound]",–,–,direct inactivation of HSV-1,–,–,–,–,–,–,–,–,–
H-(NLys-Nspe-Nspe)4-NH2 [MXB-1],–,–,–,–,–,–,–,–,–,–,–,reasonably well tolerated
